{"source": "paper PMC8945229", "about": "“Development and Biological Characterization of a Novel Selective TrkA Agonist with Neuroprotective Properties against Amyloid Toxicity” (Biomedicines, 2022)", "key": {"[1]": {"tested_on": "Primary Dorsal Root Ganglia (DRG) neurons", "assay": "TUNEL assay in primary DRG neurons upon NGF withdrawal", "type": "cell-based, mouse", "conditions": "500 nM every 24 h, 48 h, NGF-neutralizing antibody", "method": "Primary Dorsal Root Ganglia (DRG) neurons were isolated from P0-P1 mouse pups (C57BL/6J, The Jackson Laboratory, Bar Harbor, ME, USA) as described previously and cultured with Neurobasal medium (21103049 Gibco, Grand Island, NY, USA) containing 2% B27 (17504044, Gibco, Grand Island, NY, USA), 100 ng/mL NGF (N-100, Alomone Labs, Jerusalem, Israel), 1X GlutaMax (35050061, Gibco, Grand Island, NY, USA), 10 mM HEPES (15630080, Gibco, Grand Island, NY, USA), 1% Penicillin/Streptomycin (15070063, Gibco, Grand Island, NY, USA) and 10 μM 5-Fluoro-2′-deoxyuridine (343333, Calbiochem, Darmstadt, Germany). For TUNEL assay, cells were cultured for 14 days in vitro and then the medium was deprived of NGF before adding ENT-A013 (500 nM, every 24 h) along with NGF-neutralizing antibody (N8773, 1:500, Sigma-Aldrich, St. Louis, MO, USA). Cells were then incubated for 48 h before being fixed with 4% PFA and labelled with TUNEL (11684795910, F. Hoffmann–La Roche Ltd., Basel, Switzerland) following the manufacturer’s protocol. Subsequently, cells were immunostained against Tuj1 (1:2000, 801201, Biolegend, Inc., San Diego, CA, USA) and anti-mouse Cy3 (1:1000, Invitrogen, A10521, Waltham, MA, USA) and imaged with a Leica SP8 confocal microscope. […] Cells were then imaged by confocal microscopy and neurite length was measured using Fiji software (NIH, Bethesda, Maryland, USA)."}, "[2]": {"tested_on": "HEK cells transfected with p75NTR", "assay": "CellTox assay in serum-starved HEK cells transfected with p75NTR", "type": "cell-based", "conditions": "500 nM, 24hrs", "method": "(A) HEK cells transfected with p75NTR and Traf6 were treated with ENT-A013 (500nM) or NGF (100ng/ml) for 30’ and then were subjected to immunoprecipitation experiments against p75.\n(C) HEK cells transfected with p75NTR were starved from serum and treated with ENT-A013 (500nM) or NGF (100ng/ml) for 24hrs and subsequently subjected to CellTox assay. […]\ndifference between ENT-A013 treated group and negative control (Serum Free).\n(1 picture or pasted object on this page, not shown here)"}}}
{"smiles": "CC12CCC(O)CC1=CCC1C2CCC2(C)C1CCC21CC1C=CBr", "note": "[ENT-A013, (2′R,3S,17S)-2′-(2-Bromovinyl)-5-Androstene-17,1′-Cyclopropan-3-ol]", "values": [{"measurement": "NGF deprivation-induced apoptosis (TUNEL, in words)", "setting": "[1]", "value": "significantly reverse the NGF deprivation-induced apoptosis"}, {"measurement": "cell death vs negative control (Serum Free) (in words)", "setting": "[2]", "value": "no significant"}]}
